From PubChem BioAssay AID1918948 (Molecular Pharmacology Branch, DTP, NCI, 2023)

Tested on: K-562 leukemia growth, % test/control
Assay: Anticancer human tumor K-562 cell line growth inhibition;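 note: spheroids exposed to compounds for 7 days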;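 for viability, T/C: 100% = DMSO vehicle wells and lower values mean fewer viable cells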
Conditions: spheroids with HUVEC and MSC; for IC50: curve of first compound; for viability, T/C: stronger effect = lower value
Excerpt: Multicellular complex tumor spheroid response to LSD1 Inhibitor Iadademstat in combination with a variety of drugs and investigational agents in selected tumor cell lines
The current study was undertaken to assess response to LSD1 inhibitors in combination with standard-of-care drugs and investigational agents in solid tumor complex spheroid models as well as in the K-562 leukemia. Complex spheroids include a stromal component modeled by human endothelial cells (HUVEC) and fibroblasts modeled by human mesenchymal stem cells (MSCs). The concentration ranges selected for each drug and investigational agent were based upon clinically achievable concentrations if the clinical Cmax of the agent was known.
Compounds. The drugs and investigational agents used in this study are listed on Table 1. All of the agents used, including staurosporine (NSC755774) and gemcitabine (NSC613327), were obtained from the Developmental Therapeutics Program, NCI. FDA-approved anticancer drugs are available from the NCI at http://dtp.nci.nih.gov/branches/dscb/oncology_drugset_explanation.html. Drugs and investigational agents were >95% pure by proton nuclear magnetic resonance (NMR) and liquid chromatography/mass spectrometry (LC/MS). Stock solutions were prepared at 400x in DMSO, stored at -70 degrees C, and diluted in fresh medium prior to their use. The final concentration of DMSO in cell culture wells never exceeded 0.25% (v/v). The FDA-approved anticancer drug set is available from the Developmental Therapeutics Program at https://dtp.cancer.gov/organization/dscb/obtaining/available_plates.htm. All drugs and investigational agents were tested over a range starting from a high concentration at or near the clinical Cmax and decreasing in half-log increments. If the clinical Cmax for an agent had not been determined, the highest concentration tested was 10 microM.
Cell Lines. The patient-derived cancer cell (PDC) lines: 292921-168-R-J2-PDC, K24384-001-R-PDC, and 521955-158-R2-J5-PDC pancreatic carcinomas, 556581-035-R-J1 ovarian carcinoma, 324938-238-R-J1-PDC, 855422-203-R-J1-PDC and 883617-216-R-J1-PDC urothelial bladder carcinomas, 743489-274-T-PDC renal cell carcinoma, 138582-R-J1 Merkel cell tumor, K60290-347-R-J1 and K57222-313-R-J1-PDC glioblastomas, 653999-131-R-J2-PDC, LG0703-F948-PDC, and 349418-098-R-PDC non-small cell lung carcinomas, 885512-296-R-J2-PDC, 171881-019-R-J1-PDC breast carcinomas and 186277-243-T-J2-PDC and 233499-124-R-J2-PDC colon carcinomas were obtained from the NCI Patient-Derived Models Repository (PDMR, https://pdmr.cancer.gov). The established cell lines NCI/ADR-RES (RRID:CVCL_14520 and OVCAR-5 (RRID:CVCL_1628) ovarian carcinomas, 786-O (RRID:CVCL_1051) and A498 (RRID:CVCL_A498) renal cell carcinoma, NCI-H211 (ATCC, cat. CRL-5824; RRID:CVCL_1529), NCI-H196 (ATCC, cat. CRL-5823, RRID:CVCL_1509), SW 1271 (ATCC, cat. CRL-2177, RRID:CVCL_1716) and NCI-H1876 (ATCC, cat. CRL-5902, RRID:CVCL_1503) small cell lung carcinomas, MDA-MB-231 (RRID:CVCL_0062) and MDA-MB-468 (RRID:CVCL_0419)breast carcinomas (10-12). Pooled donor human umbilical vein endothelial cells (HUVEC, Lonza, cat. CC-2519) and human mesenchymal stem cells (hMSC, Lonza, cat. PT-2501) were purchased from Lonza (Walkersville, MD).
Cell Culture. All cells were maintained in an incubator at 37 degrees C and 5% CO2 with 95% humidity. The PDC lines were cultured according to standard operating procedures established by the NCI PDMR (https://pdmr.cancer.gov). Briefly all PDCs were thawed and cultured in Matrigel-coated flasks prepared with a working solution of 1X Ham's F-12 nutrient mix, without supplementation (Invitrogen, Waltham, MA, cat. 11765054), 100 U/mL penicillin-streptomycin (Invitrogen, cat. 15140122), and 2.5% Matrigel (Corning Inc., Corning, NY, cat. 354248) for the first three passages. […]

[1] = second compound 0.1 µM, first compound 0.00949 µM
[2] = second compound 0.1 µM, first compound 0.03 µM
[3] = second compound 0.1 µM, first compound 0.0949 µM
[4] = second compound 0.1 µM, first compound 0.3 µM
[5] = second compound 0.1 µM, first compound 0.949 µM
[6] = second compound 0.1 µM, first compound 3 µM
[7] = second compound 0.316 µM, first compound 0.00949 µM
[8] = second compound 0.316 µM, first compound 0.03 µM
[9] = second compound 0.316 µM, first compound 0.0949 µM
[10] = second compound 0.316 µM, first compound 0.3 µM
[11] = second compound 0.316 µM, first compound 0.949 µM
[12] = second compound 0.316 µM, first compound 3 µM
[13] = second compound 1 µM, first compound 0.00949 µM
[14] = second compound 1 µM, first compound 0.03 µM
[15] = second compound 1 µM, first compound 0.0949 µM
[16] = second compound 1 µM, first compound 0.3 µM
[17] = second compound 1 µM, first compound 0.949 µM
[18] = second compound 1 µM, first compound 3 µM
[19] = second compound 3.16 µM, first compound 0.00949 µM
[20] = second compound 3.16 µM, first compound 0.03 µM
[21] = second compound 3.16 µM, first compound 0.0949 µM
[22] = second compound 3.16 µM, first compound 0.3 µM
[23] = second compound 3.16 µM, first compound 0.949 µM
[24] = second compound 3.16 µM, first compound 3 µM
[25] = second compound 10 µM, first compound 0.00949 µM
[26] = second compound 10 µM, first compound 0.03 µM
[27] = second compound 10 µM, first compound 0.0949 µM
[28] = second compound 10 µM, first compound 0.3 µM
[29] = second compound 10 µM, first compound 0.949 µM
[30] = second compound 10 µM, first compound 3 µM

SMILES	IC50 (second compound 0.1 µM) [nM]	IC50 (second compound 0.316 µM) [nM]	IC50 (second compound 1 µM) [nM]	IC50 (second compound 3.16 µM) [nM]	IC50 (second compound 10 µM) [nM]	viability, T/C [1] [%]	viability, T/C [2] [%]	viability, T/C [3] [%]	viability, T/C [4] [%]	viability, T/C [5] [%]	viability, T/C [6] [%]	viability, T/C [7] [%]	viability, T/C [8] [%]	viability, T/C [9] [%]	viability, T/C [10] [%]	viability, T/C [11] [%]	viability, T/C [12] [%]	viability, T/C [13] [%]	viability, T/C [14] [%]	viability, T/C [15] [%]	other results
NS(=O)(=O)OCC1CC(n2ccc3c(NC4CCc5ccccc54)ncnc32)CC1O (stereo not given) + NC1CCC(NC2CC2c2ccccc2)CC1	17.1	17	14.9	10.9	< 9.49	58.9	36	40.5	27.8	15.8	8.88	58.9	36.4	40	21.4	13.9	9.49	56.7	36.8	37	viability, T/C [16]: 24.7%; viability, T/C [17]: 11.8%; viability, T/C [18]: 8.79%; viability, T/C [19]: 53.5%; viability, T/C [20]: 33.4%; viability, T/C [21]: 33.1%; viability, T/C [22]: 18.8%; viability, T/C [23]: 8.53%; viability, T/C [24]: 5.87%; viability, T/C [25]: 42%; viability, T/C [26]: 22.7%; viability, T/C [27]: 17.9%; viability, T/C [28]: 8.46%; viability, T/C [29]: 3.21%; viability, T/C [30]: 1.65%
COc1cc(C2c3cc4c(cc3C(OC3OC5COC(C)OC5C(O)C3O)C3COC(=O)C23)OCO4)cc(OC)c1O (stereo not given) + NC1CCC(NC2CC2c2ccccc2)CC1	24.2	25.9	27	27.5	26.8	86.3	34.6	26.9	35.2	13.8	3.12	87.3	36	28.2	36.1	14	3.11	86.8	37.7	28.6	viability, T/C [16]: 35.5%; viability, T/C [17]: 12.9%; viability, T/C [18]: 3.58%; viability, T/C [19]: 87.5%; viability, T/C [20]: 37%; viability, T/C [21]: 30.1%; viability, T/C [22]: 33.8%; viability, T/C [23]: 12.7%; viability, T/C [24]: 3.14%; viability, T/C [25]: 83.2%; viability, T/C [26]: 38.2%; viability, T/C [27]: 30.4%; viability, T/C [28]: 26.7%; viability, T/C [29]: 9.22%; viability, T/C [30]: 2.85%
